{"source": "patent US11918561B2", "about": "“Treatment of breast cancer using combination therapies comprising GDC-9545 and a CDK4/6 inhibitor” (Genentech, Inc., priority 2020, dated 2024)", "key": {"[1]": {"test_system": "ER pathway signature", "assay": "Pharmacodynamics: ER pathway signature score in paired biopsies", "assay_type": "in vivo, human", "conditions": "8/12; pre- and on-treatment biopsies (n=12); cohort not stated", "source_text": "An “ER pathway activity score” as used herein, refers to a numerical value that reflects mathematical difference between the E2-induced score and the E2-repressed score.\nBreast cancer is a heterogeneous disease with many distinct subtypes as defined by molecular signatures and a diverse array of mutational profiles. Patients described herein can be tested for ER+ HER2− laBC or mBC using diagnostic methods, or kits to inform treating or predict of responsiveness of a pateint to the combination therapies described herein. In one embodiment, a patient can be tested by determining an ER pathway activity score such as those described in US Patent Application Publication 20200082944. In some embodiments, a patient sample is taken and tested to determine an ER pathway activity score. The score can be calculated using a 41-gene signature by subtracting an E2-repressed score (as determined from the average z-scored expression of genes comprising BAMBI, BCAS1, CCNG2, DDIT4, EGLN3, FAM171B, GRM4, IL1R1, LIPH, NBEA, PNPLA7, PSCA, SEMA3E, SSPO, STON1, TGFB3, TP531NP1, and TP531NP2) from an E2-induced score (as determined from the average z-scored expression of genes set forth in AGR3, AMZ1, AREG, C5AR2, CELSR2, CT62, FKBP4, FMN1, GREB1, IGFBP4, NOSIAP, NXPH3, OLFM1, PGR, PPMIJ, […], RBM24, RERG, RET, SGK3, SLC9A3R1, TFF1, and ZNF703)."}, "[2]": {"test_system": "ESR1 mutant allele (ctDNA)", "assay": "ctDNA ESR1 mutant allele frequency, change from baseline", "assay_type": "in vivo, human", "conditions": "all patients in both cohorts (n=26)"}, "[3]": {"test_system": "patients with ER+ (HER2−) metastatic breast cancer", "conditions": "human, in vivo", "source_text": "A graded adverse event refers to the severity grading scale as established for by NCI CTCAE. In one embodiment, the adverse event is graded in accordance with the table below.\nNo prior treatment with CDK4/6i was allowed in patients receiving palbociclib."}, "[4]": {"test_system": "PR", "assay": "Pharmacodynamics: PR protein level in paired pre- and on-treatment biopsies", "assay_type": "in vivo, human", "conditions": "7/8, cohort not stated"}, "[5]": {"assay": "Pharmacokinetics of GDC-9545 and palbociclib in patients", "assay_type": "in vivo, human", "source_text": "Pharmacokinetics. […] Palbociclib PK was not altered when given with GDC-9545 and was consistent with reported values."}, "[6]": {"target": "T1, ER (Homo sapiens, UniProt P03372)", "T1 construct": "from tissue; host or cells: patients' tumour biopsies (pre- and on-treatment)", "T1 sequence (P03372 1-595)": "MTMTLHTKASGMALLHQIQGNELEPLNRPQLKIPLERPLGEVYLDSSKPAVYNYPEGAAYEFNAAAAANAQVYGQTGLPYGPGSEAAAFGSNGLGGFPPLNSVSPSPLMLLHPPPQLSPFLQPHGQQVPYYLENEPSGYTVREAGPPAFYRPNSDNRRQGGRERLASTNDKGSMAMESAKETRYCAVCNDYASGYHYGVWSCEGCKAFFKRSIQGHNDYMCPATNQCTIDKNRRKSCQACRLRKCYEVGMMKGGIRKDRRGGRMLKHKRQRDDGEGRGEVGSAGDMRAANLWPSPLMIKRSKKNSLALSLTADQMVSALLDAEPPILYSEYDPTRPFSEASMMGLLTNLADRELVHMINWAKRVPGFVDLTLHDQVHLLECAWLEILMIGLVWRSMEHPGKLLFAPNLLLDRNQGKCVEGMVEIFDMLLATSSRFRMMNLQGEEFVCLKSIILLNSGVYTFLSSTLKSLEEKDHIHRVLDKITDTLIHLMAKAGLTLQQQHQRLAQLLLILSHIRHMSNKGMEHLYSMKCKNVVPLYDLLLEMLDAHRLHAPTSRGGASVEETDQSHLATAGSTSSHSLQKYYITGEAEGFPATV", "assay": "Pharmacodynamics: ER protein level in paired pre- and on-treatment biopsies", "assay_type": "in vivo", "conditions": "10/12; pre- and on-treatment biopsies (n=12); cohort not stated"}, "[7]": {"test_system": "patients with ER+ (HER2−) metastatic breast cancer", "assay": "Reason for discontinuation of study treatment", "assay_type": "in vivo", "conditions": "Cohort A n = 40, Cohort B n = 48"}, "[8]": {"test_system": "ER+ (HER2−) metastatic breast cancer", "assay": "Clinical activity (clinical benefit, response, PFS; RECIST v1.1)", "assay_type": "in vivo, human", "source_text": "“Objective response rate” or “ORR” refers the percentage of patients with a confirmed complete response or partial response on two consecutive occasions ≥4 weeks apart, as determined by the investigator according to RECIST v1.1\n“Progression free survival” or “PFS” refers to the time from enrollment to the date of the first recorded occurrence of disease progression, as determined by the investigator using RECIST v1.1 or death from any cause, whichever occurs first.\n“Clinical benefit rate” or “CBR” refers to the percentage of patients with stable disease for at least 24 weeks or with confirmed complete or partial response, as determined by the investigator according to RECIST v1.1.\nClinical Activity. In Cohort A 22/40 patients (55%) derived clinical benefit defined as patients with CR, PR or first occurrence of progressive disease observed on or after 24 weeks."}, "[9]": {"conditions": "Cohort A n = 40, Cohort B n = 48"}, "[10]": {"conditions": "of 31 (Cohort A) and 45 (Cohort B) patients with measurable disease"}}}
{"smiles": "C[C@@H]1Cc2c([nH]c3ccccc23)[C@@H](c2c(F)cc(NC3CN(CCCF)C3)cc2F)N1CC(F)(F)CO", "note": "[GDC-9545, 3-((1R,3R)-1-(2,6-difluoro-4-((1-(3-fluoropropyl)azetidin-3-yl)amino)phenyl)-3-methyl-1,3,4,9-tetrahydro-2H-pyrido[3,4-b]indol-2-yl)-2,2-difluoropropan-1-ol]", "values": [{"measurement": "Reduced ER pathway signature scores, share of evaluable paired biopsies", "setting": "[1]", "result": 67, "unit": "%"}, {"measurement": "ctDNA ESR1 mutant allele frequency", "setting": "[2]", "result": "Decreases from baseline"}, {"measurement": "Bradycardia AEs reported, patients", "setting": "[3]", "result": 8, "unit": "%"}, {"measurement": "Grade 3 AEs related to GDC-9545 (others Grade 1-2)", "setting": "[3]", "result": "three Grade 3 events of fatigue, transaminase increased, and diarrhea"}, {"measurement": "Heart rate (HR) changes upon completion of treatment", "setting": "[3]", "result": "returned to baseline"}, {"measurement": "Patients who discontinued study treatment due to AEs", "setting": "[3]", "result": "No patients"}, {"measurement": "Patients with an AE related to GDC-9545", "setting": "[3]", "result": 58, "unit": "%"}, {"measurement": "Severity of bradycardia AEs", "setting": "[3]", "result": "all were Grade 1 and asymptomatic"}, {"measurement": "Treatment-emergent AEs (TEAE) reported, patients", "setting": "[3]", "result": 78, "unit": "%"}, {"measurement": "Reduced PR protein levels, share of evaluable paired biopsies", "setting": "[4]", "result": 88, "unit": "%"}, {"measurement": "Exposure of GDC-9545 in combination with palbociclib versus single agent GDC-9545", "setting": "[5]", "result": "generally comparable"}, {"measurement": "Reduced ER protein levels, share of evaluable paired biopsies", "setting": "[6]", "result": 83, "unit": "%"}, {"measurement": "Reason for discontinuation: Death", "setting": "[7]", "result": "1 (3%) patients (%)"}, {"measurement": "Reason for discontinuation: Disease progression", "setting": "[7]", "result": "22 (55%) patients (%)"}, {"measurement": "Clinical benefit in patients with prior fulvestrant treatment", "setting": "[8]; Cohort A 2/7, Cohort B 2/3", "result": 29, "unit": "%"}, {"measurement": "Clinical benefit in patients with detectable ESR1 mutations at enrollment", "setting": "[8]; Cohort A 8/13, Cohort B 11/11", "result": 62, "unit": "%"}, {"measurement": "Patients who derived clinical benefit (CR, PR or first progressive disease on or after 24 weeks)", "setting": "[8]; Cohort A 22/40, Cohort B 35/48", "result": 55, "unit": "%"}, {"measurement": "Median PFS", "setting": "[8]; [9]", "result": 7.8, "unit": "months"}, {"measurement": "Patients with an event of disease progression or death for PFS calculations", "setting": "[8]; [9]", "result": 55, "unit": "%"}, {"measurement": "CBR", "setting": "[8]; Table 3", "result": 55, "unit": "%"}, {"measurement": "ORR", "setting": "[8]; Table 3", "result": 13, "unit": "%"}, {"measurement": "Clinical benefit", "setting": "[8]; number of patients as printed", "result": 40}, {"measurement": "Patients with confirmed response", "setting": "[8]; [10]", "result": 4}, {"measurement": "Patients with unconfirmed response", "setting": "[8]; [10]", "result": 4}, {"measurement": "Partial response", "setting": "[8]; patients with measurable disease at baseline, Cohort A 4/31, Cohort B 14/45", "result": 13, "unit": "%"}]}
{"smiles": "CC(=O)c1c(C)c2cnc(Nc3ccc(N4CCNCC4)cn3)nc2n(C2CCCC2)c1=O", "note": "[Palbociclib, 6-acetyl-8-cyclopentyl-5-methyl-2-{[5-(piperazin-1-yl)pyridin-2-yl]amino}pyrido[2,3-d]pyrimidin-7(8H)-one, reference compound]", "values": [{"measurement": "Palbociclib PK when given with GDC-9545", "setting": "[5]; consistent with reported values", "result": "not altered"}]}
